Among the data in patent EP2489663A1, “Compounds as syk kinase inhibitors” (Almirall, S.A., priority 2011, dated 2012) are IC50 values, retold here.

In one assay the target is T1, human full-length Syk (Homo sapiens, UniProt P43405).
T1 construct: Recombinant human full-length Syk was supplied by Millipore; purchased Millipore
Briefly: Syk Enzyme assay - Radioactive filtration kinase assay. The format is biochemical. Conditions: recombinant human full-length Syk 1 nM, poly-GT substrate, [γ-33P] ATP, 40 min room temperature. The protocol: Syk Enzyme assay- Radioactive filtration kinase assay
Recombinant human full-length Syk was supplied by Millipore. The activity of Syk kinase was assessed using a radioactive filtration kinase assay.
10 µL of substrate poly-GT (100 µg/mL final) and 4 µl of Syk (1 nM final) in 50 mM Tris-HCl (pH 7.5), 0.1 mM EGTA, 4 mM Mg(CH3COO)2, 0.1 mM Na3VO4, 0.1% (v/v) β-mercaptoethanol, 0.133 mg/mL BSA (bovine serum albumin) were added to 1.5 µl of various concentrations of compound or DMSO vehicle (5% final). The reaction was initiated by the addition of 14.5 µL of 0.36 µCi [γ-^33P] ATP (adenosine tri-phosphate) (10 mCi/ml, PerkinElmer). This was prepared in a half-area NBS plate (Corning) and allowed to stand at room temperature for 40 min.
15 µL of reaction mixture was transferred to a filter plate (Millipore) previously prewetted with a solution of 75 mM phosphoric acid. The reaction was terminated with the addition of 200 µL phosphoric acid. The filter plate was washed three times under vacuum on a vacuum manifold (Millipore cat# MSVMHTS00) at 8" Hg vacuum level with 200 µL phosphoric acid per wash.
30 µL Optiphase™ Supermix (PerkinElmer) was added to each test well and allowed to incubate for at least 1 h before counting. Radioactivity counting was performed in a Wallac MicroBeta®, and the tyrosine phosphorylation activity by Syk was calculated.

A further assay has as its system LAD2 cells. The experiment in a line: LAD2 cells assay (mast cell degranulation, β-hexosaminidase release). The format is cell-based. The conditions noted are these: Homo sapiens, 0.5 h; biotin-labeled IgE sensitized LAD2 cells, compound 30 min, activated with 125 ng/mL streptavidin 30 min, released β-hexosaminidase. The source says:
LAD2 is a human mast cell line depending on stem cell factor for its survival, maturation and differentiation. This mast cell line was established by the NIH from bone marrow aspirates from a patient with mast cell sarcoma. LAD2 cells resemble CD34+ - derived human mast cells as they have granules containing tryptase, histamine and β-hexosaminidase. They also express c-kit and FcεRI (Kirshenbaum, et al., Leukemia Research 27: 677-682, 2003).
Sensitization of LAD2 cells
Cells were sensitized (0.2x10^6 cells/mL) in its normal growth factor (Complete StemPro-34 SFM, Gibco 10639-011 containing StemPro-34 nutrient supplement (1/40); glutamine (2 mM) and supplemented with 100 ng/ml SCF) by adding 100 ng/mL of biotin-labeled IgE (USBiological) overnight (16-18 h, 37º, 5% CO2) in a humidified atmosphere (90%).
Compounds were prepared from a 10^-2M stock in 100% DMSO to give seven successive 1/3 dilutions in DMSO. From each concentration, 2 further 1/10 dilutions were prepared in release buffer (137 mM NaCl, 2.70 mM KCI, 0.4 mM NaH2PO4, 5.6 mM (D)-glucose, 1.8 mM CaCl2, 1.3 mM MgSO4, 0.025% BSA). Finally, 5 µl from each diluted concentration were transferred into the assay plate (flat 96-well Nunc). The final compound concentrations tested ranged from 1x10^-5M to 4.12x10^-9M with a final proportion of DMSO in the assay of 0.1%. Control wells were treated with 0.1 % DMSO.
Sensitized LAD2 cells were centrifuged (300 g, 3 min, R.T.) and washed 2 times with release buffer. Cells were resuspended in release buffer and adjusted to a density of 0.2x10^6/mL. 45 µL of the adjusted cells were transfered to the assay plate (∼10,000cells/well) containg 5 µL of the final compound concentrations. LAD2 cells were incubated with the compound for 30 min (37 °C, 5% CO2 90% of humidity) and then activated with 125 ng/mL of streptavidin (Pierce 21125) for 30 min (37°C, 5% CO2, 90% of humidity). After the activation, cells were centrifuged at 1200 g, 10 min, 12 °C and supernatats were removed and transfered to another well for determination of released β-hexosaminidase. Empty wells were filled with 50 µL of release buffer for determination of intracellular β-hexosaminidase. Cells were lysed with 2 cycles of freeze-thaw.
Cells were incubated for 90 minutes, 37 °C with 1 mM β-hexosaminidase substrate (p-nitrophenyl N-acetyl-D-glucosamide, in citric buffer, pH 4.5). Reaction was stopped with 0.4 M glycine solution (pH 10.0) and the plate is read immediately at 405 nm.

`COc1ccc2c(Nc3cnccn3)nn(-c3cc(N4C[C@@H]5C[C@H]4CN5)ncn3)c2c1` [Example 56, 1-{6-[(1S,4S)-2,5-diazabicyclo[2.2.1]hept-2-yl]pyrimidin-4-yl}-6-methoxy-N-pyrazin-2-yl-1H-indazol-3-amine]: the results for the IC50 at human full-length Syk and in the assay with LAD2 cells were 15 nM and 179 nM, respectively. As for `Oc1ccc2c(Nc3cnccn3)nn(-c3ccnc(N4CCCNCC4)c3)c2c1` [Example 86, 1-[2-(1,4-diazepan-1-yl)pyridin-4-yl]-3-(pyrazin-2-ylamino)-1H-indazol-6-ol], the IC50 at human full-length Syk is 15 nM; with LAD2 cells, 263 nM. For `O=C(c1ccc2c(Nc3cnccn3)nn(-c3ccnc(N4C[C@@H]5C[C@H]4CN5)c3)c2c1)N1CCCCC1` [Example 21, 1-{2-[(1S,4S)-2,5-Diazabicyclo[2.2.1]hept-2-yl]pyridin-4-yl}-6-(piperidin-1-ylcarbonyl)-N-pyrazin-2-yl-1H-indazol-3-amine], in that order: 10.5 nM and 342 nM. With `O=S(=O)(Nc1ccc2c(Nc3cnccn3)nn(-c3ccnc(N4C[C@@H]5C[C@H]4CN5)c3)c2c1)c1ccccc1` [Example 30, N-[1-{2-[(1S,4S)-2,5-Diazabicyclo[2.2.1]hept-2-yl]pyridin-4-yl}-3-(pyrazin-2-ylamino)-1H-indazol-6-yl]benzenesulfonamide], on human full-length Syk, the IC50 was 20 nM. On to `c1ccc2c(c1)c(Nc1cnccn1)nn2-c1ccnc(N2CCCNCC2)c1` [Example 8, 1-[2-(1,4-Diazepan-1-yl)pyridin-4-yl]-N-pyrazin-2-yl-1H-indazol-3-amine], for which the IC50 on human full-length Syk stood at 17 nM. Turning to `COc1ccc2c(Nc3cnccn3)nn(-c3ccnc(N4C[C@@H]5C[C@H]4CN5)c3)c2c1` [Example 31, 1-{2-[(1S,4S)-2,5-Diazabicyclo[2.2.1]hept-2-yl]pyridin-4-yl}-6-methoxy-N-pyrazin-2-yl-1H-indazol-3-amine], the IC50 came to 8 nM on human full-length Syk and 111 nM in the assay on LAD2 cells. For `Cc1ccc2c(Nc3cnccn3)nn(-c3ccnc(N4C[C@@H]5C[C@H]4CN5)c3)c2c1` [Example 55, 1-{2-[(1S,4S)-2,5-Diazabicyclo[2.2.1]hept-2-yl]pyridin-4-yl}-6-methyl-N-pyrazin-2-yl-1H-indazol-3-amine], in that order: 6 nM and 142 nM.

As for `Cc1ccnc(Nc2nn(-c3ccnc(N4C[C@@H]5C[C@H]4CN5)c3)c3cc(O)ccc23)c1` [Example 88, 1-{2-[(1S,4S)-2,5-diazabicyclo[2.2.1]hept-2-yl]pyridin-4-yl}-3-[(4-methylpyridin-2-yl)amino]-1H-indazol-6-ol], the results for the IC50 on human full-length Syk and in the assay on LAD2 cells were 5 nM and 364 nM, respectively. For `COCCOc1ccc2c(Nc3cnccn3)nn(-c3ccnc(N4C[C@@H]5C[C@H]4CN5)c3)c2c1` [Example 61, 1-{2-[(1S,4S)-2,5-diazabicyclo[2.2.1]hept-2-yl]pyridin-4-yl}-6-(2-methoxyethoxy)-N-pyrazin-2-yl-1H-indazol-3-amine], in that order: 12 nM and 136 nM. For `c1ccc2c(c1)c(Nc1cnccn1)nn2-c1ccnc(N2C[C@@H]3C[C@H]2CN3)c1` [Example 10, 1-{2-[(1S,4S)-2,5-Diazabicyclo[2.2.1]hept-2-yl]pyridin-4-yl}-N-pyrazin-2-yl-1H-indazol-3-amine], in that order: 7.4 nM and 55 nM.

Take `c1ccc2c(c1)c(Nc1cnccn1)nn2-c1cc(N2C[C@@H]3C[C@H]2CN3)ccn1` [Example 69, 1-{4-[(1S,4S)-2,5-Diazabicyclo[2.2.1]hept-2-yl]pyridin-2-yl}-N-pyrazin-2-yl-1H-indazol-3-amine]: the figures for the 50% inhibitory concentration (IC50) at human full-length Syk and with LAD2 cells were 13 nM and 263 nM, respectively. On to `Cc1ccc2c(Nc3cnccn3)nn(-c3cncc(N4C[C@@H]5C[C@H]4CN5)c3)c2c1` [Example 71, 1-{5-[(1S,4S)-2,5-diazabicyclo[2.2.1]hept-2-yl]pyridin-3-yl}-6-methyl-N-pyrazin-2-yl-1H-indazol-3-amine], for which the IC50 on human full-length Syk came out at 5 nM; with LAD2 cells, 111 nM. On to `COc1ccc2c(Nc3cnccn3)nn(-c3ccnc(N4CCNC[C@@H]4C)c3)c2c1` [Example 76, 6-Methoxy-1-{2-[(2S)-2-methylpiperazin-1-yl]pyridin-4-yl}-N-pyrazin-2-yl-1H-indazol-3-amine], for which the IC50 at human full-length Syk was found to be 11 nM; in the assay on LAD2 cells it was 137 nM.

Take `Oc1ccc2c(Nc3cnccn3)nn(-c3cncc(N4C[C@@H]5C[C@H]4CN5)c3)c2c1` [Example 63, 1-{5-[(1S,4S)-2,5-Diazabicyclo[2.2.1]hept-2-yl]pyridin-3-yl}-3-(pyrazin-2-ylamino)-1H-indazol-6-ol]: the IC50 stood at 11 nM at human full-length Syk and 363 nM with LAD2 cells. For `Nc1ccc2c(Nc3cnccn3)nn(-c3ccnc(N4C[C@@H]5C[C@H]4CN5)c3)c2c1` [Example 12, 1-{2-[(1S,4S)-2,5-Diazabicyclo[2.2.1]hept-2-yl]pyridin-4-yl}-N^3-pyrazin-2-yl-1H-indazole-3,6-diamine], in that order: 2.5 nM and 167 nM.

In the case of `Cc1nc(N2C[C@@H]3C[C@H]2CN3)cc(-n2nc(Nc3cnccn3)c3ccccc32)n1` [Example 42, 1-{6-[(1S,4S)-2,5-Diazabicyclo[2.2.1]hept-2-yl]-2-methylpyrimidin-4-yl}-N-pyrazin-2-yl-1H-indazol-3-amine], the IC50 came to 9 nM at human full-length Syk and 254 nM in the assay on LAD2 cells. `C[C@H]1CNCCN1c1cc(-n2nc(Nc3cnccn3)c3ccccc32)ccn1` [Example 50, 1-{2-[(2S)-2-methylpiperazin-1-yl]pyridin-4-yl}-N-pyrazin-2-yl-1H-indazol-3-amine]: the results for the 50% inhibitory concentration (IC50) at human full-length Syk and with LAD2 cells were 11 nM and 80 nM, respectively. The matching figures for `COc1ccc2c(Nc3cnccn3)nn(-c3ccnc(N4CCCNCC4)c3)c2c1` [Example 62, 1-[2-(1,4-diazepan-1-yl)pyridin-4-yl]-6-methoxy-N-pyrazin-2-yl-1H-indazol-3-amine]: 17 nM and 169 nM. Consider `COc1ccc2c(Nc3cnccn3)nn(-c3cccc(N4C[C@@H]5C[C@H]4CN5)c3)c2c1` [Example 89, 1-{3-[(1S,4S)-2,5-diazabicyclo[2.2.1]hept-2-yl]phenyl}-6-methoxy-N-pyrazin-2-yl-1H-indazol-3-amine], for which the IC50 at human full-length Syk came to 16 nM; in the assay on LAD2 cells it was 160 nM. As to `c1cnc(Nc2nn(-c3ccnc(N4C[C@@H]5C[C@H]4CN5)c3)c3cc(C4CC4)ccc23)cn1` [Example 58, 6-cyclopropyl-1-{2-[(1S,4S)-2,5-diazabicyclo[2.2.1]hept-2-yl]pyridin-4-yl}-N-pyrazin-2-yl-1H-indazol-3-amine], the IC50 worked out at 4 nM at human full-length Syk and 266 nM with LAD2 cells.
